From US20240109836A1, “NON-HALL[…] ANALOGS FOR TREATMENT OF NEUROLOGICAL AND PSYCHIATRIC DISORDERS” (The Trustees of Columbia University in the City of New York, priority 2021, published 2024) come the findings set out here.

In one assay the target is 5-HT2A (Homo sapiens, UniProt P28223). Kind of assay: IP1 agonist functional assay. The class given is cell-based.
A short description of assay [1]: Head twitch response assay. The class given is in vivo, Mice (C57bl/6J). Particulars: mice, 1, 3, 10, and 30 mg/kg s.c., vs positive control DOI. The procedure:
FIG. 2. […] N=5 mice in each cohort. […] Drugs were administered s.c.
Mice (C57bl/6J, 8-15 weeks, 26-33 g) were weighed and moved to the testing room 30 minutes prior to experimentation. Mice were administered the experimental compound at a selected dose s.c. and then immediately moved to a new cage. Before beginning the test, mice were allowed to remain in this cage for a set amount of time ranging 0-10 min based on the compound. The head twitch assay was performed by a trained observer watching the mouse for a 10 min duration and recording the total number of head twitches observed.
DOI was tested at the doses of 1, 3, 10 and 30 mg/kg (s.c., 5 mice per dose) and testing began immediately after administration of the compound. Ariadne (32), (29) and (38) were tested at the doses of 1, 3, 10, and 30 mg/kg (s.c., 5 mice per dose) and there was a 10 min interval between treatment and testing.

Chain of 5-HT2A (P28223 whole entry): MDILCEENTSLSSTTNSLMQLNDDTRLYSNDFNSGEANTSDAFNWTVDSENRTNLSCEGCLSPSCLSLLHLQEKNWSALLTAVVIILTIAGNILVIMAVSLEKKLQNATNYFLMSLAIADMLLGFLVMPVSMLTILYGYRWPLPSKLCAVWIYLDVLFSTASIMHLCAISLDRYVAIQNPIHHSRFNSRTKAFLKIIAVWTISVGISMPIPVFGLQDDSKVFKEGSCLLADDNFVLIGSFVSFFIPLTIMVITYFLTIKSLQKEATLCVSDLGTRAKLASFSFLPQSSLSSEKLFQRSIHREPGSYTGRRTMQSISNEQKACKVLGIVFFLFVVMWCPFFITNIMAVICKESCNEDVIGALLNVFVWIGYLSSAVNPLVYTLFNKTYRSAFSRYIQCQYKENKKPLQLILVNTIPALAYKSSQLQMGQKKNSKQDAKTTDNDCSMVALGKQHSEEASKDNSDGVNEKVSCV

What is called EC50 is the concentration at which the effect is half-maximal. Read a low EC50 as a more potent agent. Molecule `CCC(N)Cc1cc(OC)c(COC)cc1OC` (centres unmarked) [compound 38, 1-(2,5-dimethoxy-4-(methoxymethyl)phenyl)butan-2-amine] showed a half-maximal effective concentration (EC50) at 5-HT2A of 3.8 µM. Further, the “psychedelic activity (number of head twitches in a 10-min period)” value in assay [1] is recorded as “lower psychedelic activity”.
